Source: US5025011A, “Fused pyridines active on the cardiovascular system” (SIMES, Societa Italiana Medicinali e Sintetici S.p.A., priority 1988, dated 1991)

How the values were obtained:
[1] = molecular target: T1, mouse lung beta2 receptors (Mus musculus, UniProt P18762); assay: beta-blocking activity: binding test towards beta2 lung receptors in mouse
T1 construct: beta2 lung receptors in mouse; from tissue; host or cells: mouse lung
Excerpt: (§1) Moreover the beta-blocking activity has been tested with i binding tests both towards beta1 heart receptors and beta2 lung receptors in mouse according to methods described in J. Biol. Chem., 253, 5090, (1978) and Br. J. Pharmacol., 68, 57, (1980).

[2] = molecular target: T2, mouse heart beta1 receptors (Mus musculus, UniProt P34971); assay: beta-blocking activity: binding test towards beta1 heart receptors in mouse
T2 construct: beta1 heart receptors; from tissue; host or cells: mouse heart
Excerpt: as §1

rabbit mesenteric artery = assay: Calcium antagonist activity: antagonizing the effect of Ca++ on preparations of rabbit mesenteric artery in Krebs depolarizer; type: cell-based; details: Oryctolagus cuniculus, Ca++ submaximal concentration 3 mM
Procedure: Calcium antagonist activity of the compounds of formula I has been tested as capability of antagonizing the effect of Ca^++ submaximal concentrations (3 mM) on preparations of rabbit mesenteric artery in Krebs depolarizer, prepared according to Towart "J. Cardiovasc. Pharmacol." 4, 895, (1982).

T1 sequence (P18762 whole entry): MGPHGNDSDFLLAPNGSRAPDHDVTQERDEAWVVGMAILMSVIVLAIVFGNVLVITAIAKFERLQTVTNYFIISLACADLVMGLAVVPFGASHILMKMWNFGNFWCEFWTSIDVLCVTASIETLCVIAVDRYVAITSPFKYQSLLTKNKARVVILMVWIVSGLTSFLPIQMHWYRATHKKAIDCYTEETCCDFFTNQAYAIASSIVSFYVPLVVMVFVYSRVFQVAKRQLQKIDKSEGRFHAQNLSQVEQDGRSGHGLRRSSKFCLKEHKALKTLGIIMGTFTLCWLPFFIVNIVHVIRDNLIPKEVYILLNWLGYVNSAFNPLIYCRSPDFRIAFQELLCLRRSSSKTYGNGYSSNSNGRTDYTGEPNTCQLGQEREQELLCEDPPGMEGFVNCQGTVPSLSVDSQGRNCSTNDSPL
T2 sequence (P34971 whole entry): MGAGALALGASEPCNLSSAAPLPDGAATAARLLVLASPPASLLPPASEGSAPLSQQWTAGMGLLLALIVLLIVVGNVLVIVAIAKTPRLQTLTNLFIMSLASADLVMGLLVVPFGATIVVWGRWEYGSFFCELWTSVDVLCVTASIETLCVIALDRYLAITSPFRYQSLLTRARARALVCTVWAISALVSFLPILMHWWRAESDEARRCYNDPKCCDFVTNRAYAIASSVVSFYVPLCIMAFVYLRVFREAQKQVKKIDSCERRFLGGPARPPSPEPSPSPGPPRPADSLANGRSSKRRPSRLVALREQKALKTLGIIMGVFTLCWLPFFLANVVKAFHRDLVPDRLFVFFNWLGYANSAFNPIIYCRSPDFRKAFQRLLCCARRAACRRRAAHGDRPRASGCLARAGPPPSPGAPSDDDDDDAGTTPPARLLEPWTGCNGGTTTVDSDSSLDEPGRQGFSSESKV

Ki [1] | Ki [2] | IC50 (rabbit mesenteric artery) | Structure (SMILES)
0.287 µM | 0.345 µM | 0.24 µM | CCOC(=O)C1=C(C)Nc2cnn(CCNCC(O)COc3ccccc3OC)c(=O)c2C1c1cccc([N+](=O)[O-])c1 (stereo not drawn) [Compound A, Ethyl 2-methyl-4-(3-nitrophenyl)-5-oxo-6-(2-(2-hydroxy-3-(2-methoxyphenoxy)-propylamino)-ethyl)-1,4,5,6-tetrahydro-pyrido(2,3-d)pyridaxine-3-carboxylate]
0.071 µM | 0.142 µM | 0.77 µM | CCOC(=O)C1=C(C)Nc2cnn(CC(C)(C)NCC(O)COc3ccccc3OC)c(=O)c2C1c1cccc([N+](=O)[O-])c1 (stereo not drawn) [Compound B]
